Measurements published in publication PMC2359721 (British Journal of Cancer, 2007).

Columns and labels:
[1] = Plasma pharmacokinetics in patients (HPLC-MS/MS, noncompartmental); conditions: for CL/F / Vd/F / half-life / AUC(0-t) / Cmax / Tmax: human, plasma, oral
C-SRC = conditions: at concentrations 100- to 1000-fold higher; ref Boehringer-Ingelheim, data on file; cited from earlier work
[2] = Phase I safety, DLT and MTD, OD 14 days on / 14 days off; type: in vivo
Description: Tablets were taken 1 h before breakfast. A cycle was defined as 14 days on treatment followed by 14 days off medication. […] The starting dose corresponded with one-fifth of the toxic dose low in rats, the most sensitive species. The dose for successive cohorts was doubled until observation of drug-related AE grade ⩾2 according to common toxicity criteria v3.0 in one or more patients in the first cycle. Thereafter escalation steps were ⩽50%. Should DLT be observed in one out of six patients and dose escalation continued, escalation steps were ⩽35%. Initially, three patients were treated per dose level. If one patient experienced drug-related DLT, three additional patients were treated. When no further patient experienced DLT, the dose was escalated. When ⩾2/6 patients experienced DLT, three additional patients were treated 1 dose tier below unless six had already been treated there.
Maximum tolerated dose was defined as the highest dose with ⩽1/6 patients experiencing DLT during cycle 1. Dose-limiting toxicity was defined as grade 3 or 4 nonhaematological toxicity except untreated nausea, vomiting, or diarrhoea; grade 4 haematological toxicity; grade 3 diarrhoea, nausea, or vomiting despite supportive care; need for loperamide for ⩾7 days to treat or prevent grade ⩾2 diarrhoea; need for continuous administration of 5HT-3 antagonists or dexamethasone to treat or prevent grade ⩾2 nausea or vomiting; occurrence of grade ⩾2 cardiac left ventricular function or renal toxicity. In the absence of DLT or disease progression, patients received six cycles and were allowed to continue in an extension protocol. Intrapatient dose escalation was not allowed. The study was approved by local Ethics Committees, and all patients provided written informed consent.
(§1) Prior to therapy, medical history taking and physical examination were performed. A complete blood cell count (CBC), white blood cell (WBC) differential and serum biochemistry were performed, as were urinalysis, electrocardiogram, MUGA scanning and, chest X-ray. Weekly evaluations during cycles 1 and 2 and every other week thereafter included physical examination, AE assessment, CBC, WBC differential and serum chemistry including renal function. Tumour measurements and MUGA scanning were performed every other cycle. Response was assessed using RECIST ([Therasse et al, 2000]).

[3] = tested on: A431, MDA-MB-453, NCI-N87 gastric and SKOV-3 ovarian xenografts; design: method as in Boehringer-Ingelheim, data on file; conditions: oral, ref Boehringer-Ingelheim, data on file, cited from earlier work
advanced solid tumours [4] = conditions: cited from earlier work
epidermal keratinocytes = test: Pharmacodynamics in paired skin biopsies (immunohistochemistry); type: in vivo, human; conditions: on therapy day 14 cycle 1, all dose levels pooled, 36 paired biopsies; pretreatment 14.0±4.5%; P<0.0001
[5] = minipig, in vivo; cited from earlier work
[6] = biological target: vascular endothelial growth factor 2; conditions: at concentrations 100- to 1000-fold higher; ref Boehringer-Ingelheim, data on file; cited from earlier work
advanced solid tumours [7] = test: Antitumour activity (RECIST); type: in vivo, human
Description: as §1

[8] = tested on: gefitinib-resistant kinases; design: method as in Carter et al, 2005; Kwak et al, 2005; conditions: preclinical studies, ref Carter et al, 2005, Kwak et al; cited from earlier work
[9] = design: method as in Torrance et al, 2000; conditions: ref Torrance et al, 2000; cited from earlier work
EGFR phosphorylation = tested on: EGFR phosphorylation; design: method as in Torrance et al, 2000; conditions: xenograft model; ref Torrance et al, 2000; cited from earlier work

CN(C)C/C=C/C(=O)Nc1cc2c(Nc3ccc(F)c(Cl)c3)ncnc2cc1O[C@H]1CCOC1 [BIBW 2992]
time to reach steady state ([1]; OD dosing): ≤ 8 days | CL/F [1]: 383 to 1390 mL/min | Vd/F [1]: 1250 to 4760 L | half-life [1]: 28 to 43 h | AUC(0-t) ([1]; 10 mg): 199 ng·h/mL | CL/F ([1]; 10 mg): 839 mL/min | Cmax ([1]; 10 mg): 14.1 ng/mL | Tmax ([1]; 10 mg): 2.98 h | Vd/F ([1]; 10 mg): 2610 L | half-life ([1]; 10 mg): 35.9 h | AUC(0-t) ([1]; 20 mg): 241 ng·h/mL | CL/F ([1]; 20 mg): 1390 mL/min | Cmax ([1]; 20 mg): 16.2 ng/mL | Tmax ([1]; 20 mg): 4 h | Vd/F ([1]; 20 mg): 4760 L | half-life ([1]; 20 mg): 39.7 h | AUC(0-t) ([1]; 30 mg): 1310 ng·h/mL | CL/F ([1]; 30 mg): 383 mL/min | Cmax ([1]; 30 mg): 111 ng/mL | Tmax ([1]; 30 mg): 0.95 h | Vd/F ([1]; 30 mg): 1250 L | half-life ([1]; 30 mg): 37.7 h | AUC(0-t) ([1]; 45 mg): 840 ng·h/mL | CL/F ([1]; 45 mg): 893 mL/min | Cmax ([1]; 45 mg): 68.4 ng/mL | Tmax ([1]; 45 mg): 3 h | Vd/F ([1]; 45 mg): 3350 L | half-life ([1]; 45 mg): 43.4 h | AUC(0-t) ([1]; 70 mg): 2620 ng·h/mL | CL/F ([1]; 70 mg): 445 mL/min | Cmax ([1]; 70 mg): 180 ng/mL | Tmax ([1]; 70 mg): 2 h | Vd/F ([1]; 70 mg): 1530 L | half-life ([1]; 70 mg): 39.6 h | AUC(0-t) ([1]; 85 mg): 2340 ng·h/mL | CL/F ([1]; 85 mg): 604 mL/min | Cmax ([1]; 85 mg): 163 ng/mL | Tmax ([1]; 85 mg): 2 h | Vd/F ([1]; 85 mg): 1610 L | half-life ([1]; 85 mg): 30.8 h | AUC(0-t) ([1]; 100 mg): 2750 ng·h/mL | CL/F ([1]; 100 mg): 606 mL/min | Cmax ([1]; 100 mg): 234 ng/mL | Tmax ([1]; 100 mg): 1 h | Vd/F ([1]; 100 mg): 1500 L | half-life ([1]; 100 mg): 28.6 h | kinase inhibition (C-SRC): not inhibited | Maximum tolerated dose ([2]; OD 14 days on, 14 days off): 70 mg | recommended dose (phase 2) ([2]; OD, 14-day on, 14-day off schedule): 70 mg | incidence of diarrhoea ([2]; human, in vivo): 84% | incidence of gastrointestinal AE ([2]; human, in vivo): 92% | onset of diarrhoea ([2]; human, in vivo): ≤ 7 days | overall incidence of rash, acne and dry skin ([2]; human, in vivo): 95% | patients with grade 1 anemia ([2]; human, in vivo): 6 patients | patients with mild fatigue ([2]; human, in vivo): 24 patients | patients with mild gastrointestinal AE (diarrhoea, nausea, vomiting) ([2]; human, in vivo): 35 patients | patients with self-limiting epistaxis ([2]; human, in vivo): 20 patients | DLT observed in cycle 1, initial 70 mg cohort ([2]; in vivo): one | patients with LVEF reduction ([2]; in vivo): Two | patients with grade 1 thrombocytopaenia ([2]; in vivo): two | patients with grade 2 ALT ([2]; in vivo): three | patients with grade 2 AST ([2]; in vivo): four | patients with grade 2 alkaline phosphatase ([2]; in vivo): five | patients with grade 2 bilirubin ([2]; in vivo): two | tumour regression ([3]; mice with A431, MDA-MB-453, NCI-N87 gastric, SKOV-3 ovarian models): induced tumour regression | plasma concentrations at which tumour regression was induced ([3]; xenograft models in mice): 80 to 280 nM | patients with partial tumour responses (advanced solid tumours [4]; adenocarcinoma of the lung, ref Shaw et al, 2006): two | LVEF changes in additional trials (advanced solid tumours [4]; preliminary data from ⩾120 patients, ref Agus et al, 2006, Shaw et al): not indicated significant LVEF changes | percentage Ki-67-positive cells (means±s.d.) (epidermal keratinocytes): 7.9±4.5% | organs in which toxicity occurred [5]: gastrointestinal tract | kinase inhibition [6]: not inhibited | objective response (advanced solid tumours [7]; 38 patients, 10–100 mg): No partial or complete responses | patients with minor tumour regressions (advanced solid tumours [7]; all treated at doses of ⩾45 mg): Eight | median number of cycles in patients with stable disease (advanced solid tumours [7]; patients with stable disease ⩾4 cycles): 6 (range 5–9) cycles | patients with stable disease lasting ⩾4 cycles (advanced solid tumours [7]; various tumour types): seven

C=CC(=O)Nc1cc2c(Nc3ccc(F)c(Cl)c3)ncnc2cc1OCCCN1CCOCC1 [CI-1033]
inhibition of gefitinib-resistant kinases [8]: inhibition

CCOc1cc2ncc(C#N)c(Nc3ccc(F)c(Cl)c3)c2cc1NC(=O)/C=C/CN(C)C [EKB-569]
plasma half-life [9]: 2 h | inhibition of gefitinib-resistant kinases [8]: inhibition | duration of inhibition of EGFR phosphorylation (EGFR phosphorylation): > 24 h

CCOc1cc2ncc(C#N)c(Nc3ccc(OCc4ccccn4)c(Cl)c3)c2cc1NC(=O)/C=C/CN(C)C [HKI-272]
inhibition of gefitinib-resistant kinases [8]: inhibition
